The target of one test is human Gal-3 (hGal-3) (Homo sapiens (Human), UniProt P17931). In words: competitive binding assay: biotinylated hGal-3 binding to microplate-adsorbed asialofetuin (ASF). The method, boiled down: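 3 h, 4 °C binding step; cold buffer wash; streptavidin-HRP 80 ng/mL, 1 h, 4 °C; ABTS colorimetric read-out. Compounds diluted serially in DMSO. IC50 reported as mean of repeat runs.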

A further test has as its target human Gal-1 (hGal-1) (Homo sapiens (Human), UniProt P09382). Description: competitive binding assay: biotinylated hGal-1 binding to microplate-adsorbed asialofetuin (ASF). To be noted: Table 15; read-out: IC50 (Galectin-1 inhibition). In short, it runs like this:
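Spectrophotometric competition readout: after compound and biotinylated hGal-1 (300-1000 ng/mL) sit 3 h at 4° C on adsorbed asialofetuin, streptavidin-peroxidase (1 h, 4° C) and ABTS reveal residual binding. Reported IC50 values are means of repeat runs.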

The mark [1] stands for this setting: Gal-3 inhibition, binding of biotinylated hGal-3 to ASF, mean values, read-out: IC50.
Where [2] appears, read: Table 11, read-out: IC50 (Gal-3 inhibition).
Setting [3] is: Table 5, read-out: IC50 (Gal-3 inhibition).

Where two headings read alike, the source gives them in different places.

Sequence of human Gal-1 (hGal-1) (P09382 whole entry): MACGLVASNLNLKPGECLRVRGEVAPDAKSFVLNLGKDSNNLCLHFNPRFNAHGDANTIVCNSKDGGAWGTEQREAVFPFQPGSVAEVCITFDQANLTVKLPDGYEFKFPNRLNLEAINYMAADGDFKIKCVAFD
Sequence of human Gal-3 (hGal-3) (P17931 whole entry): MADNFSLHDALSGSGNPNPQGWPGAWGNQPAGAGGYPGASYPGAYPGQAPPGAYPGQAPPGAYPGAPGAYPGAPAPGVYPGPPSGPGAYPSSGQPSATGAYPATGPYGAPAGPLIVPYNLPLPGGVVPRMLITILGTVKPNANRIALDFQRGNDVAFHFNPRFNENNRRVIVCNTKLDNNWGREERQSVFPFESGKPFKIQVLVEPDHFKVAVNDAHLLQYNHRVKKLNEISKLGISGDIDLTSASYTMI

In general, IC50 refers to the concentration that gives 50% inhibition. With `CC(C)(O)[C@H](S[C@@H]1O[C@H](CO)[C@H](O)[C@H](n2cc(-c3cc(F)c(F)c(F)c3)nn2)[C@H]1O)c1ccccc1-c1ccccc1` [Example 2.31.110R., (2S,3R,4S,5R,6R)-2-(((R)-1-([1,1′-Biphenyl]-2-yl)-2-hydroxy-2-methylpropyl)thio)-6-(hydroxymethyl)-4-(4-(3,4,5-trifluorophenyl)-1H-1,2,3-triazol-1-yl)tetrahydro-2H-pyran-3,5-diol], the IC50 was found to be 220 nM at human Gal-3 (hGal-3) (setting [1]) and 280 nM at human Gal-1 (hGal-1).
Take `O=C(NC1CC1)N1CCC(O)([C@H](S[C@@H]2O[C@H](CO)[C@H](O)[C@H](n3cc(-c4cc(F)c(F)c(F)c4)nn3)[C@H]2O)c2ccccc2C(F)(F)F)CC1` [Example 2.49.112R., N-Cyclopropyl-4-((R)-(((2S,3R,4S,5R,6R)-3,5-dihydroxy-6-(hydroxymethyl)-4-(4-(3,4,5-trifluorophenyl)-1H-1,2,3-triazol-1-yl)tetrahydro-2H-pyran-2-yl)thio)(2-(trifluoromethyl)phenyl)methyl)-4-hydroxypiperidine-1-carboxamide]: the values for the IC50 at human Gal-3 (hGal-3) (setting [1]) and at human Gal-1 (hGal-1) were 50 nM and 160 nM, respectively.
In the same order, the values of `CC(C)(O)[C@@H](S[C@@H]1O[C@H](CO)[C@H](O)[C@H](n2cc(-c3cc(F)c(F)c(F)c3)nn2)[C@H]1O)c1ccccc1Cl` [Example 2.31.111S., (2S,3R,4S,5R,6R)-2-(((S)-1-(2-Chlorophenyl)-2-hydroxy-2-methylpropyl)thio)-6-(hydroxymethyl)-4-(4-(3,4,5-trifluorophenyl)-1H-1,2,3-triazol-1-yl)tetrahydro-2H-pyran-3,5-diol] are 4300 nM and 30900 nM.
`CC(C)c1cccnc1[C@@H](S[C@@H]1O[C@H](CO)[C@H](O)[C@H](n2cc(-c3cc(F)c(F)c(F)c3)nn2)[C@H]1O)C1(O)CCC(F)(F)CC1` [Example 2.44.132R., (2S,3R,4S,5R,6R)-2-(((R)-(4,4-Difluoro-1-hydroxycyclohexyl)(3-isopropylpyridin-2-yl)methyl)thio)-6-(hydroxymethyl)-4-(4-(3,4,5-trifluorophenyl)-1H-1,2,3-triazol-1-yl)tetrahydro-2H-pyran-3,5-diol]: the IC50 at human Gal-3 (hGal-3) (setting [1]) and at human Gal-1 (hGal-1) was 50 nM each time.
For the compound `CO[C@@H]1[C@@H](n2cc(-c3cc(F)c(F)c(F)c3)nn2)[C@@H](O)[C@@H](CO)O[C@H]1S[C@H](c1ncccc1C1CC1)C1(O)CCC(F)(F)CC1` [Example 2.44.134R.I., (2R,3R,4S,5R,6S)-6-(((R)-(3-Cyclopropylpyridin-2-yl)(4,4-difluoro-1-hydroxycyclohexyl)methyl)thio)-2-(hydroxymethyl)-5-methoxy-4-(4-(3,4,5-trifluorophenyl)-1H-1,2,3-triazol-1-yl)tetrahydro-2H-pyran-3-ol [1,3-di-deoxy-1-((4,4-difluoro-1-hydroxy-cyclohexan-1-yl)-(3-(-cyclopropyl)pyridin-2-yl)methyl-(R)-thio)-2-O-methyl-3-[4-(3,4,5-trifluorophenyl)-1H-1,2,3-triazol-1-yl]-b-D-galactopyranoside]], the IC50 turned out to be 60 nM on human Gal-3 (hGal-3) (Table 9, 2-OMe-Gal inhibitors, read-out: IC50 (Gal-3 inhibition)) and 110 nM on human Gal-1 (hGal-1).
Regarding `CO[C@@H]1[C@@H](n2cc(-c3cc(F)c(F)c(F)c3)nn2)[C@@H](O)[C@@H](CO)O[C@H]1S[C@@H](c1nocc1C)C1(O)CCCCC1` [Example 2.39.120S.I., (2R,3R,4S,5R,6S)-6-(((S)-(1-Hydroxycyclohexyl)(4-methylisoxazol-3-yl)methyl)thio)-2-(hydroxymethyl)-5-methoxy-4-(4-(3,4,5-trifluorophenyl)-1H-1,2,3-triazol-1-yl)tetrahydro-2H-pyran-3-ol], the IC50 was determined as 12500 nM on human Gal-3 (hGal-3) (Table 10, 2-OMe-Gal inhibitors, read-out: IC50 (Gal-3 inhibition)) and 27300 nM on human Gal-1 (hGal-1).
With `COC(=O)N1CCC(O)([C@H](S[C@@H]2O[C@H](CO)[C@H](O)[C@H](n3cc(-c4cc(F)c(F)c(F)c4)nn3)[C@H]2O)c2ccccc2C(F)(F)F)CC1` [Example 2.50.112R., Methyl 4-((R)-(((2S,3R,4S,5R,6R)-3,5-dihydroxy-6-(hydroxymethyl)-4-(4-(3,4,5-trifluorophenyl)-1H-1,2,3-triazol-1-yl)tetrahydro-2H-pyran-2-yl)thio)(2-(trifluoromethyl)phenyl)methyl)-4-hydroxypiperidine-1-carboxylate], the figures for the IC50 on human Gal-3 (hGal-3) (setting [1]) and at human Gal-1 (hGal-1) were 80 nM and 370 nM, respectively.
In the same order, the values of `Cc1ccccc1C(S[C@@H]1O[C@H](CO)[C@H](O)[C@H](n2cc(-c3cc(F)c(F)c(F)c3)nn2)[C@H]1O)C(C)(C)O` (stereo partly drawn) [Example 2.31.102., (2S,3R,4S,5R,6R)-2-((2-Hydroxy-2-methyl-1-(o-tolyl)propyl)thio)-6-(hydroxymethyl)-4-(4-(3,4,5-trifluorophenyl)-1H-1,2,3-triazol-1-yl)tetrahydro-2H-pyran-3,5-diol] are 170 nM and 2140 nM.
Taken in the same sequence, the figures for `Cc1ccnnc1[C@@H](S[C@@H]1O[C@H](CO)[C@H](O)[C@H](n2cc(-c3cc(F)c(F)c(F)c3)nn2)[C@H]1O)C1(O)CCC(F)(F)CC1` [Example 2.44.135R., (2S,3R,4S,5R,6R)-2-(((R)-(4,4-Difluoro-1-hydroxycyclohexyl)(4-methylpyridazin-3-yl)methyl)thio)-6-(hydroxymethyl)-4-(4-(3,4,5-trifluorophenyl)-1H-1,2,3-triazol-1-yl)tetrahydro-2H-pyran-3,5-diol] were 40 nM and 220 nM.
With `CO[C@@H]1[C@@H](n2cc(-c3cc(F)c(F)c(F)c3)nn2)[C@@H](O)[C@@H](CO)O[C@H]1S[C@H](c1nc(C)c(C)nc1C)C1(O)CCC(F)(F)CC1` [Example 2.44.119R.I., (2R,3R,4S,5R,6S)-6-(((R)-(4,4-Difluoro-1-hydroxycyclohexyl)(3,5,6-trimethylpyrazin-2-yl)methyl)thio)-2-(hydroxymethyl)-5-methoxy-4-(4-(3,4,5-trifluorophenyl)-1H-1,2,3-triazol-1-yl)tetrahydro-2H-pyran-3-ol], the IC50 turned out to be 90 nM on human Gal-3 (hGal-3) (setting [2]) and 450 nM on human Gal-1 (hGal-1).
Take `Cc1noc(C2CC2)c1[C@H](S[C@@H]1O[C@H](CO)[C@H](O)[C@H](n2cc(-c3cc(F)c(F)c(F)c3)nn2)[C@H]1O)C1(O)CCCCC1` [Example 2.39.128S., (2S,3R,4S,5R,6R)-2-(((S)-(5-Cyclopropyl-3-methylisoxazol-4-yl)(1-hydroxycyclohexyl)methyl)thio)-6-(hydroxymethyl)-4-(4-(3,4,5-trifluorophenyl)-1H-1,2,3-triazol-1-yl)tetrahydro-2H-pyran-3,5-diol]: the half-maximal inhibitory concentration (IC50) at human Gal-3 (hGal-3) (setting [3]) was 3210 nM; on human Gal-1 (hGal-1) it was 23200 nM.
In the same order, the values of “(2S,3R,4S,5R,6R)-2-(((3,3-Difluoro-1-hydroxycyclobutyl)(3-(trifluoromethyl)pyridin-2-yl)methyl)thio)-6-(hydroxymethyl)-4-(4-(3,4,5-trifluorophenyl)-1H-1,2,3-triazol-1-yl)tetrahydro-2H-pyran-3,5-diol [Example 2.35.125.]” are 320 nM and 1460 nM.
In the case of `CC(C)(O)[C@H](S[C@@H]1O[C@H](CO)[C@H](O)[C@H](n2cc(-c3cc(F)c(F)c(F)c3)nn2)[C@H]1O)c1ccccc1CCO` [Example 2.31.108R., (2S,3R,4S,5R,6R)-2-(((R)-2-Hydroxy-1-(2-(2-hydroxyethyl)phenyl)-2-methylpropyl)thio)-6-(hydroxymethyl)-4-(4-(3,4,5-trifluorophenyl)-1H-1,2,3-triazol-1-yl)tetrahydro-2H-pyran-3,5-diol], the values for the IC50 at human Gal-3 (hGal-3) (setting [1]) and on human Gal-1 (hGal-1) were 270 nM and 390 nM, respectively.
Regarding `CO[C@@H]1[C@@H](n2cc(-c3cc(F)c(F)c(F)c3)nn2)[C@@H](O)[C@@H](CO)O[C@H]1S[C@H](c1nccc(Cl)c1C)C1(O)CCC(F)(F)CC1` [Example 2.44.141R.I., (2R,3R,4S,5R,6S)-6-(((R)-(4-Chloro-3-methylpyridin-2-yl)(4,4-difluoro-1-hydroxycyclohexyl)methyl)thio)-2-(hydroxymethyl)-5-methoxy-4-(4-(3,4,5-trifluorophenyl)-1H-1,2,3-triazol-1-yl)tetrahydro-2H-pyran-3-ol], the figures for the IC50 on human Gal-3 (hGal-3) (setting [2]) and on human Gal-1 (hGal-1) were 70 nM and 350 nM, respectively.
Taken in the same sequence, the figures for `CO[C@@H]1[C@@H](n2cc(-c3cc(F)c(F)c(F)c3)nn2)[C@@H](O)[C@@H](CO)O[C@H]1S[C@@H](c1noc(C2CC2)c1C)C1(O)CCC(F)(F)CC1` [Example 2.44.145S.I., (2R,3R,4S,5R,6S)-6-(((S)-(5-Cyclopropyl-4-methylisoxazol-3-yl)(4,4-difluoro-1-hydroxycyclohexyl)methyl)thio)-2-(hydroxymethyl)-5-methoxy-4-(4-(3,4,5-trifluorophenyl)-1H-1,2,3-triazol-1-yl)tetrahydro-2H-pyran-3-ol] were 11200 nM and 31000 nM.
In the case of `CN1CCC(O)([C@H](S[C@@H]2O[C@H](CO)[C@H](O)[C@H](n3cc(-c4cc(F)c(F)c(F)c4)nn3)[C@H]2O)c2ncccc2C(F)(F)F)CC1` [Example 2.40.125R., (2S,3R,4S,5R,6R)-2-(((R)-(4-Hydroxy-1-methylpiperidin-4-yl)(3-(trifluoromethyl)pyridin-2-yl)methyl)thio)-6-(hydroxymethyl)-4-(4-(3,4,5-trifluorophenyl)-1H-1,2,3-triazol-1-yl)tetrahydro-2H-pyran-3,5-diol], the values for the IC50 on human Gal-3 (hGal-3) (setting [3]) and on human Gal-1 (hGal-1) were 20 nM and 40 nM, respectively.
In the same order, the values of “(2S,3R,4S,5R,6R)-2-(((R)-(2,3-Dichlorophenyl)(4,4-difluoro-1-hydroxycyclohexyl)methyl)thio)-6-(hydroxymethyl)-4-(4-(3,4,5-trifluorophenyl)-1H-1,2,3-triazol-1-yl)tetrahydro-2H-pyran-3,5-diol [Example 2.44.113R.]” are 800 nM and 1730 nM.
